Legend:
[1] = Liver microsomal stability, mouse; format: in vitro ADME; details: 1 µM compound; 0.5 mg/mL microsomes; NADPH; 30 minutes at 37°C
Method: (§1) Liver microsomal stability by the compounds prepared according to Examples 1 to 46 was confirmed. Specifically, four types of liver microsomes (human, dog, rat, and mouse each at 0.5 mg/mL), 0.1 M phosphate buffer solution (pH 7.4), and the compounds at 1 µM concentration were added and pre-incubated at 37°C for 5 minutes, and then NADPH generation system solution was added and incubated at 37°C for an additional 30 minutes. Thereafter, an acetonitrile solution containing an internal standard (chloropropamide) was added to terminate the reaction, and after centrifugation for 5 minutes (14,000 rpm, 4°C), the supernatant was injected into an LC-MS/MS system to analyze the substrate drug, thereby evaluating the metabolic stability of 8 compounds.
(§2) The amount of remaining substrate through the reaction was analyzed using a Shimadzu Nexera XR system and TSQ vantage (Thermo). A Kinetex XB-C18 (2.1 × 100 mm, 2.6 µm, particle size; Phenomenex, USA) was used as the HPLC column, and (A) distilled water containing 0.1% formic acid and (B) acetonitrile containing 0.1% formic acid were used as mobile phases. Analyst software (version 1.6.3) and Xcalibur (version 1.6.1) were used for data analysis. The calculated results are shown in Table 5 below: Liver microsomal stability data of novel compounds from […] (human, rat, and mouse).

[2] = Liver microsomal stability, human; format: in vitro ADME; details: 1 µM compound; 0.5 mg/mL microsomes; NADPH; 30 minutes at 37°C
Method: as §1, §2

[3] = Liver microsomal stability, rat; format: in vitro ADME; details: 1 µM compound; 0.5 mg/mL microsomes; NADPH; 30 minutes at 37°C
Method: as §1, §2

CYP2C9 = molecular target: T1, CYP2C9 (Homo sapiens, UniProt P11712); test: CYP isoenzyme activity inhibition in human liver microsomes, CYP2C9; format: in vitro ADME; details: 10 µM compound; human liver microsomes 0.25 mg/mL; relative to control without compound
T1 construct: human liver microsomes (0.25 mg/mL); from tissue; host or cells: human liver microsomes
T1 sequence (P11712 whole entry): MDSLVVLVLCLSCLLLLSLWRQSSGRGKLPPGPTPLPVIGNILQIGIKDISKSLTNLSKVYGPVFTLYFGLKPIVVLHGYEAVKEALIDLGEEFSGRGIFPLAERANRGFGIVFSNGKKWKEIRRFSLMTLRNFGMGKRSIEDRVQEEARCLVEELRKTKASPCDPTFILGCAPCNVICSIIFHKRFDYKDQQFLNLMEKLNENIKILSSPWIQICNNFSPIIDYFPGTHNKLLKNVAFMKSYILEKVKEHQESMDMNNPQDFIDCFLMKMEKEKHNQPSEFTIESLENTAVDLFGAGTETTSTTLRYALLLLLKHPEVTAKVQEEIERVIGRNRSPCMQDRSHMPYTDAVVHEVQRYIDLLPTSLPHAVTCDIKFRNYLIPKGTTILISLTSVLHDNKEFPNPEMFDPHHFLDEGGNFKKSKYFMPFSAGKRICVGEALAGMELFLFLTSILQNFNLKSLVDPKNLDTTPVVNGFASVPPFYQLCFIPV
Method: (§3) The CYP isoenzyme activity inhibitory effect by the compounds prepared according to Examples 1 to 46 was confirmed. Specifically, human liver microsomes (0.25 mg/mL), 0.1 M phosphate buffer solution (pH 7.4), a substrate drug cocktail of five drug metabolizing enzymes (Phenacetin 50 µM, Diclofenac 10 µM, S-mephenytoin 100 µM, Dextromethorphan 5 µM, and Midazolam 2.5 µM), and the compounds were added at concentrations of 0 or 10 µM, respectively, and pre-incubated at 37°C for 5 minutes, and then NADPH generation system solution was added and incubated at 37°C for an additional 15 minutes. Thereafter, an acetonitrile solution containing an internal standard (Terfenadine) was added to terminate the reaction, and after centrifugation for 5 minutes (14,000 rpm, 4°C), the supernatant was injected into an LC-MS/MS system to simultaneously analyze the metabolites of the substrate drugs, thereby evaluating the drug metabolizing enzyme inhibitory activity.
(§4) The metabolites of each CYP isoenzyme marker drug generated through the reaction were analyzed using a Shimadzu Nexera XR system and TSQ vantage (Thermo). A Kinetex C18 (2.1 × 100 mm, 2.6 µm, particle size; Phenomenex, USA) was used as the HPLC column, and (A) distilled water containing 0.1% formic acid and (B) acetonitrile containing 0.1% formic acid were used as mobile phases, and a gradient program as shown in Table 6 below was applied.
(§5) The generated metabolites were quantified using MRM (Multiple Reaction Monitoring) quantitative mode, and Xcalibur (version 1.6.1) was used for data analysis. To show the CYP isoenzyme activity inhibitory effect of the novel compounds prepared according to the Examples of the disclosure, the % activity of CYP isoenzymes relative to the control group without compound addition is shown in Table 6 below. Additionally, to confirm the difference in effect according to substituents, Comparative Compounds 1 and 5, which are two compounds that share a similar parent nucleus structure with Compounds 1 to 46 of the disclosure while Cy is substituted with aromatic heteroaryl instead of saturated heterocyclyl, were selected as comparative compounds and their activities are shown together.

TDP-43 BiFC cells = test: Cell viability (stained nuclei count) in TDP-43-BiFC cells; format: cell-based; details: Forskolin-only group = 100%
Summary of the method: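 Forskolin (30 µM) co-treated with compound (screen 3 and 10 µM; dose-response 0.003–10 µM) for 48 h. BiFC fluorescence normalised to Forskolin-only (100% aggregation) minus untreated; viability from Hoechst-stained nuclei count vs Forskolin-only. IC50 by nonlinear regression.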

CYP2C19 = molecular target: T2, CYP2C19 (Homo sapiens, UniProt P33261); test: CYP isoenzyme activity inhibition in human liver microsomes, CYP2C19; format: in vitro ADME; details: 10 µM compound; human liver microsomes 0.25 mg/mL; relative to control without compound
T2 construct: human liver microsomes (0.25 mg/mL); from tissue; host or cells: human liver microsomes
T2 sequence (P33261 whole entry): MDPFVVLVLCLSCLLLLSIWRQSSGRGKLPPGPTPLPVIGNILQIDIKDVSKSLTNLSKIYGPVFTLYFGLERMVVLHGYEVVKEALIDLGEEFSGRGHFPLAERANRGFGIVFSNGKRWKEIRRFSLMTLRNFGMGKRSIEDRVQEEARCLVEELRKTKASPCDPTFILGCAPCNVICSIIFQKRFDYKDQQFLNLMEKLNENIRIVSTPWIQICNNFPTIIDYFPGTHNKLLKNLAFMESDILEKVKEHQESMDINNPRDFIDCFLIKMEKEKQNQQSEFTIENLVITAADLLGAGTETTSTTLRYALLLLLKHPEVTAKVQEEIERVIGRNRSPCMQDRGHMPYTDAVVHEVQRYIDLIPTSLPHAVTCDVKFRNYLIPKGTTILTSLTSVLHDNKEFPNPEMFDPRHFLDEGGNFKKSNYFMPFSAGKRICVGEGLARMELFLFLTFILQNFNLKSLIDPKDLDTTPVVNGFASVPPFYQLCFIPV
Method: as §3, §4, §5

SMILES	Mouse microsomes (% remaining) [1] [% remaining]	Human microsomes (% remaining) [2] [% remaining]	Rat microsomes (% remaining) [3] [% remaining]	CYP2C9 (% activity) (CYP2C9)	Cell viability (%) (@ 3 uM) (TDP-43 BiFC cells)	CYP2C19 (% activity) (CYP2C19)
N#CC(C#N)=NNc1ccc2nc(N3CC4CCC(C3)O4)sc2c1 [Compound 23, (2-(8-oxa-3-azabicyclo[3.2.1]octan-3-yl)benzo[d]thiazol-6-yl)carbonohydrazonoyl dicyanide]	86.6	85.6	69.8	68.5	81.1	69.6
CC(C)N1CCN(c2nc3ccc(NN=C(C#N)C#N)cc3o2)CC1 [Compound 28, (2-(4-isopropylpiperazin-1-yl)benzo[d]oxazol-6-yl)carbonohydrazonoyl dicyanide]	81.8	11.7	50.7	48.5	113.4	90.8
N#CC(C#N)=NNc1ccc2nc(NC(=O)N3CCOCC3)sc2c1 [Compound 38, (2-(morpholine-4-carboxamido)benzo[d]thiazol-6-yl)carbonohydrazonoyl dicyanide]	86.1	87.6	96.0	73.6	111.9	80
N#CC(C#N)=NNc1ccc2nc(N3CCOCC3)sc2c1 [Compound 2, (2-morpholinobenzo[d]thiazol-6-yl)carbonohydrazonoyl dicyanide]	94.10	74.3	55.2	95.1	87.5	96.7
N#CC(C#N)=NNc1ccc2nc(N3C4CCC3COC4)sc2c1 [Compound 11, (2-(3-oxa-8-azabicyclo[3.2.1]octan-8-yl)benzo[d]thiazol-6-yl)carbonohydrazonoyl dicyanide]	87.8	81.3	73.9	70.2	80.9	80.3
Cn1c(N2CCOCC2)nc2cc(NN=C(C#N)C#N)ccc21 [Compound 6, (1-methyl-2-morpholino-1H-benzo[d]imidazol-5-yl)carbonohydrazonoyl dicyanide]	87.3	90	66.1	> 100	98.1	98.4
N#CC(C#N)=NNc1ccc2nc(N3CC4CCC(C3)O4)oc2c1 [Compound 26, (2-(8-oxa-3-azabicyclo[3.2.1]octan-3-yl)benzo[d]oxazol-6-yl)carbonohydrazonoyl dicyanide]	99	96.3	95.1	53.3	76.1	82.1
N#CC(C#N)=NNc1ccc2nc(N3CC[C@@H](F)C3)oc2c1 [Compound 41, (R)-(2-(3-fluoropyrrolidin-1-yl)benzo[d]oxazol-6-yl)carbonohydrazonoyl dicyanide]	65.3	70.0	19.0	51.2	71.5	86.7
CC1COCCN1c1nc2ccc(NN=C(C#N)C#N)cc2o1 (stereo not drawn) [Compound 16, (2-(3-methylmorpholino)benzo[d]oxazol-6-yl)carbonohydrazonoyl dicyanide]	89.5	79.8	49.6	87	97.8	> 100
Cn1c(N2C3CCC2COC3)nc2ccc(NN=C(C#N)C#N)cc21 [Compound 34, (2-(3-oxa-8-azabicyclo[3.2.1]octan-8-yl)-1-methyl-1H-benzo[d]imidazol-6-yl)carbonohydrazonoyl dicyanide]	78.2	88.9	97.1	80.8	59.5	80.6
CC1CN(c2nc3ccc(NN=C(C#N)C#N)cc3s2)CCO1 (stereo not drawn) [Compound 12, (2-(2-methylmorpholino)benzo[d]thiazol-6-yl)carbonohydrazonoyl dicyanide]	85.1	62.7	70.1	65.1	73.0	84.8
N#CC(C#N)=NNc1ccc2sc(N3CCOCC3)nc2c1 [Compound 1, (2-morpholinobenzo[d]thiazol-5-yl)carbonohydrazonoyl dicyanide]	49.3	91.2	2.1	82.5	87.5	> 100
CCn1c(N2CCOCC2)nc2cc(NN=C(C#N)C#N)ccc21 [Compound 33, (1-ethyl-2-morpholino-1H-benzo[d]imidazol-5-yl)carbonohydrazonoyl dicyanide]	89	94.9	96.8	28.8	55.0	78.6
N#CC(C#N)=NNc1ccc2nc(N3C4CCC3COC4)oc2c1 [Compound 20, (2-(3-oxa-8-azabicyclo[3.2.1]octan-8-yl)benzo[d]oxazol-6-yl)carbonohydrazonoyl dicyanide]	95.4	> 100	82.9	48	75.4	51.8
N#CC(C#N)=NNc1ccc2nc(N3CCOCC3)oc2c1 [Compound 4, (2-morpholinobenzo[d]oxazol-6-yl)carbonohydrazonoyl dicyanide]	98.5	93.5	80.9	93.2	104.2	93.4
